One compound from patent publication US5380727A, “Synergistic combination for treating herpes infections” (Bio-Mega, Inc., priority 1990, dated 1995) can be followed below.

The test system of the test is HSV-2 (strain HG-52). The test can be described thus: Inhibition of HSV-2 replication in BHK-21/C13 cell culture (viral titer by neutral red colorimetric assay). Particulars: Human alphaherpesvirus 2, BHK21 (C13); agent alone; HSV-2 strain HG-52 in BHK-21/C13 cells, 29 h incubation; read-out: IC50 (concentration causing 50% inhibition of virus replication). Format: cell-based. The protocol:
BHK-21/C13 cells (ATCC CCL 10) are incubated for two days in 150 cm^2 T-flasks (1.5×10^6 cells/flask) with alpha-MEM medium (Gibco Canada Inc., Burlington, Ontario, Canada) supplemented with 8% (v/v) fetal bovine serum (FBS, Gibco Canada Inc.). The cells are trypsinized and then transferred to fresh media in a 24 well plate to give 2.5×10^5 cells in 750 μL of media per well. The cells are incubated at 37° C. for a period of 6 hours to allow them to adhere to the plate. Thereafter, the cells are washed once with 500 μL of alpha-MEM supplemented with 0.5% (v/v) FBS and then incubated with 750 μL of the same media (low serum) for 3 days. After this period of serum starvation, the low serum medium is removed and the cells are incubated in 500 μL of BBMT for 2 to 3 hours. [BBMT medium is described by P. Brazeau et al., Proc. Natl. Acad. Sci. USA, 79, 7909 (1982).] Thereafter, the cells are infected with HSV-2 (multiplicity of infection=0.02 PFU/cell) in 100 μL of BBMT medium. […]
On completion of the above 2 hour incubation of the BHK-21/C13 cells, the media is replaced with alpha-MEM medium supplemented with 3% (v/v) FBS. The cells are now ready to be infected with the various sample dilutions of virus. […]

For the compound `Nc1nc2c(ncn2COCCO)c(=O)[nH]1` [acyclovir, 9-[(2-hydroxyethoxy)methyl]guanine], the IC50 stood at 4 µM.
